Measurements: US20020072601A1, “Method for forming amino acid derivatives from tricyclic diketopiperazines” (University of Southern Mississippi, priority 2000, published 2002)

Assay: Gelation studies: minimum concentration needed for solvent gelation
Assay type: physicochemical
Conditions: cooled to room temperature
Experimental: The ring-opening reaction of PyDKP with certain nucleophiles (Reaction 3) forms a class of pyroglutamate derivatives that gel organic solvents. In these experiments, the solubility and minimum concentration needed for solvent gelation were determined. Tetradecyl pyroglutamide was placed in various solvents which were then heated to their boiling point, except silicone and soybean oil, which were heated to 150° C. to prevent decomposition of the gelator. In most cases, regardless of partial insolubility in some instances, the various solvents formed immobile gels upon cooling to room temperature. All of the gels were thermoreversible, meaning the gel would revert back to liquid with the application of heat and then reform with cooling.

- gel Concentration (1-Propanol): 50 g/L
- gel Concentration (Acetonitrile): 15 g/L
- gel Concentration (Benzene): 100 g/L
- gel Concentration (Butanol): 100 g/L
- gel Concentration (Chloroform): 160 g/L
- gel Concentration (Dichioromethane): 50 g/L
- gel Concentration (Ethanol): 30 g/L
- gel Concentration (Methanol): 30 g/L
- gel Concentration (Silicone Oil): 11 g/L
- gel Concentration (Soybean Oil): 11 g/L
Structure (SMILES): CCCCCCCCCCCCCCNC(=O)[C@@H]1CCC(=O)N1 [N-tetradecyl pyroglutamide, N-Pyroglutamyl tetradecylamine]
